Measurements: patent US20170275270A1, “BENZYL SUBSTITUTED INDAZOLES” (Bayer Pharma Aktiengesellschaft, priority 2014, published 2017)

These compounds were tested against T1, catalytic domain of human Bub1 (amino acids 704-1085) (Homo sapiens, UniProt O43683) (assay: Bub1 kinase assay (TR-FRET)). Conditions: Biological Assay 1: Bub1 kinase assay median IC50, 10 μM ATP.
T1 construct: catalytic domain of human Bub1 (amino acids 704-1085); His6 (N); made in house; host or cells: Hi5 insect cells
Assay type: biochemical
Summary of the method: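 Compounds from 2 mM DMSO stocks, serially diluted 1:3.4, incubated with enzyme at 22° C for 60 min. Stopped with EDTA, then 1 h with streptavidin-XL665, anti-phosphoserine antibody and Eu-labelled anti-mouse IgG. Phosphorylated biotin-peptide read by TR-FRET; IC50 by 4-parameter logistic fit.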

T1 sequence (O43683 704-1085): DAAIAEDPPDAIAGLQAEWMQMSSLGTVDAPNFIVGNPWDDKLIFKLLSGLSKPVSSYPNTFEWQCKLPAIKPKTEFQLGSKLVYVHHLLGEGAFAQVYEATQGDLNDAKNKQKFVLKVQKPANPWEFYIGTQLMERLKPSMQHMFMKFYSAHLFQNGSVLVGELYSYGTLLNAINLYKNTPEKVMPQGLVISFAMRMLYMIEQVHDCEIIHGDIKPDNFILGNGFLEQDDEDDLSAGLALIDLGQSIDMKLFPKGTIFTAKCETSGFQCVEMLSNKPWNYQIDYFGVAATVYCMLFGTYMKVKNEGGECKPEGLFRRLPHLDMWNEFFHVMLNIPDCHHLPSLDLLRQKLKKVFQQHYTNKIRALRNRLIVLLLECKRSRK

Row | SMILES | IC50 [nM]
1 | COCCOc1cc(F)c(Cn2nc(-c3nc4c(c(Nc5cc(C)ncc5C)n3)CCC(C)(C)C4)c3ccccc32)c(F)c1 [Example 2-15-13, 2-{1-[2,6-difluoro-4-(2-methoxyethoxy)benzyl]-1H-indazol-3-yl}-N-(2,5-dimethylpyridin-4-yl)-7,7-dimethyl-5,6,7,8-tetrahydroquinazolin-4-amine] | 59
2 | COCCOc1cc(F)c(Cn2nc(-c3ncc(C4CCNCC4)c(Nc4ccnc(NC(C)=O)c4)n3)c3ccccc32)c(F)c1 [Example 2-17-8, N-(4-{[2-{1-[2,6-difluoro-4-(2-methoxyethoxy)benzyl]-1H-indazol-3-yl}-5-(piperidin-4-yl)pyrimidin-4-yl]amino}pyridin-2-yl)acetamide] | 6.3
3 | COCCOc1cc(F)c(Cn2nc(-c3ncc(C4CCNCC4)c(Nc4ccncc4Cl)n3)c3ccccc32)c(F)c1 [Example 2-17-9, N-(3-chloropyridin-4-yl)-2-{1-[2,6-difluoro-4-(2-methoxyethoxy)benzyl]-1H-indazol-3-yl}-5-(piperidin-4-yl)pyrimidin-4-amine] | 7.5
4 | COCCOc1cc(F)c(Cn2nc(-c3ncc(C4CCNCC4)c(Nc4ccnc(C)n4)n3)c3ccccc32)c(F)c1 [Example 2-17-10, 2-{1-[2,6-difluoro-4-(2-methoxyethoxy)benzyl]-1H-indazol-3-yl}-N-(2-methylpyrimidin-4-yl)-5-(piperidin-4-yl)pyrimidin-4-amine] | 85
5 | CCOc1cc(F)c(Cn2nc(-c3nc4c(c(Nc5ccncc5C)n3)CSC4)c3ccccc32)c(F)c1 [Example 2-19-2, 2-[1-(4-ethoxy-2,6-difluorobenzyl)-1H-indazol-3-yl]-N-(3-methylpyridin-4-yl)-5,7-dihydrothieno[3,4-d]pyrimidin-4-amine] | 25
6 | CCOc1cc(F)c(Cn2nc(-c3nc4c(c(Nc5ccnc(C)c5)n3)CS(=O)(=O)C4)c3ccccc32)c(F)c1 [Example 2-19-5, 2-[1-(4-ethoxy-2,6-difluorobenzyl)-1H-indazol-3-yl]-N-(2-methylpyridin-4-yl)-5,7-dihydrothieno[3,4-d]pyrimidin-4-amine 6,6-dioxide] | 140
7 | CCOc1cc(F)c(Cn2nc(-c3nc(CN4CCOCC4)cc(Nc4ccnc(OC)c4)n3)c3ccccc32)c(F)c1 [Example 2-19-10, 2-[1-(4-ethoxy-2,6-difluorobenzyl)-1H-indazol-3-yl]-N-(2-methoxypyridin-4-yl)-6-(morpholin-4-ylmethyl)pyrimidin-4-amine] | 94
8 | CCOc1cc(F)c(Cn2nc(-c3nc4c(c(Nc5ccnc(C(F)F)c5)n3)CS(=O)(=O)C4)c3ccccc32)c(F)c1 [Example 2-19-14, N-[2-(difluoromethyl)pyridin-4-yl]-2-[1-(4-ethoxy-2,6-difluorobenzyl)-1H-indazol-3-yl]-5,7-dihydrothieno[3,4-d]pyrimidin-4-amine 6,6-dioxide] | 460
9 | CCOc1cc(F)c(Cn2nc(-c3nc4c(c(Nc5ccnc(C)c5)n3)COC4)c3ccccc32)c(F)c1 [Example 2-19-16, 2-[1-(4-ethoxy-2,6-difluorobenzyl)-1H-indazol-3-yl]-N-(2-methylpyridin-4-yl)-5,7-dihydrofuro[3,4-d]pyrimidin-4-amine] | 100

Next, values leading:

Row | IC50 [nM] | SMILES
10 | 84 | CCOc1cc(F)c(Cn2nc(-c3nc4c(c(Nc5ccncc5C)n3)COC4)c3ccccc32)c(F)c1 [Example 2-19-18, 2-[1-(4-ethoxy-2,6-difluorobenzyl)-1H-indazol-3-yl]-N-(3-methylpyridin-4-yl)-5,7-dihydrofuro[3,4-d]pyrimidin-4-amine]
11 | 12 | CCOc1cc(F)c(Cn2nc(-c3nc4c(c(Nc5ccncc5)n3)CCCC4)c3ccccc32)c(F)c1 [Example 2-19-21, 2-[1-(4-ethoxy-2,6-difluorobenzyl)-1H-indazol-3-yl]-N-(pyridin-4-yl)-5,6,7,8-tetrahydroquinazolin-4-amine]
12 | 66 | COCCOc1cc(F)c(Cn2nc(-c3ncc(C4CCN(CC(F)(F)F)CC4)c(Nc4ccnc(NC(C)=O)c4)n3)c3ccccc32)c(F)c1 [Example 2-20-7, N-{4-[(2-{1-[2,6-difluoro-4-(2-methoxyethoxy)benzyl]-1H-indazol-3-yl}-5-[1-(2,2,2-trifluoroethyl)piperidin-4-yl]pyrimidin-4-yl)amino]pyridin-2-yl}acetamide]
13 | > 20000 | COCCOc1cc(F)c(Cn2nc(-c3ncc(C4CCN(CC(F)(F)F)CC4)c(Nc4ccncc4Cl)n3)c3ccccc32)c(F)c1 [Example 2-20-8, N-(3-chloropyridin-4-yl)-2-{1-[2,6-difluoro-4-(2-methoxyethoxy)benzyl]-1H-indazol-3-yl}-5-[1-(2,2,2-trifluoroethyl)piperidin-4-yl]pyrimidin-4-amine]
14 | 220 | COCCOc1cc(F)c(Cn2nc(-c3ncc(C4CCN(CCC(F)(F)F)CC4)c(Nc4ccncc4Cl)n3)c3ccccc32)c(F)c1 [Example 2-20-9, N-(3-chloropyridin-4-yl)-2-{1-[2,6-difluoro-4-(2-methoxyethoxy)benzyl]-1H-indazol-3-yl}-5-[1-(3,3,3-trifluoropropyl)piperidin-4-yl]pyrimidin-4-amine]
15 | 290 | COCCOc1cc(F)c(Cn2nc(-c3ncc(C4CCN(CC(F)(F)F)CC4)c(Nc4ccnc(C)n4)n3)c3ccccc32)c(F)c1 [Example 2-20-10, 2-{1-[2,6-difluoro-4-(2-methoxyethoxy)benzyl]-1H-indazol-3-yl}-N-(2-methylpyrimidin-4-yl)-5-[1-(2,2,2-trifluoroethyl)piperidin-4-yl]pyrimidin-4-amine]
16 | 63 | COCCOc1cc(F)c(Cn2nc(-c3ncc(C4CCN(CC(F)F)CC4)c(Nc4ccnc(C)n4)n3)c3ccccc32)c(F)c1 [Example 2-20-11, 5-[1-(2,2-difluoroethyl)piperidin-4-yl]-2-{1-[2,6-difluoro-4-(2-methoxyethoxy)benzyl]-1H-indazol-3-yl}-N-(2-methylpyrimidin-4-yl)pyrimidin-4-amine]
17 | 560 | CCOc1cc(F)c(Cn2nc(-c3ncc(CCNCC(F)(F)F)c(Nc4ccnc(C)n4)n3)c3ccccc32)c(F)c1 [Example 2-20-13, 2-[1-(4-ethoxy-2,6-difluorobenzyl)-1H-indazol-3-yl]-N-(2-methylpyrimidin-4-yl)-5-{2-[(2,2,2-trifluoroethyl)amino]ethyl}pyrimidin-4-amine]
18 | 22 | CCOc1cc(F)c(Cn2nc(-c3ncc(CCNCC(F)(F)F)c(Nc4ccnc(NC(C)=O)c4)n3)c3ccccc32)c(F)c1 [Example 2-20-15, N-{4-[(2-[1-(4-ethoxy-2,6-difluorobenzyl)-1H-indazol-3-yl]-5-{2-[(2,2,2-trifluoroethyl)amino]ethyl}pyrimidin-4-yl)amino]pyridin-2-yl}acetamide]
19 | 120 | COCCOc1cc(F)c(Cn2nc(-c3nc4c(c(Nc5ccnc(C)n5)n3)CN(CC(F)(F)F)C4)c3ccccc32)c(F)c1 [Example 2-20-16, 2-{1-[2,6-difluoro-4-(2-methoxyethoxy)benzyl]-1H-indazol-3-yl}-N-(2-methylpyrimidin-4-yl)-6-(2,2,2-trifluoroethyl)-6,7-dihydro-5H-pyrrolo[3,4-d]pyrimidin-4-amine]
20 | 34 | COCCOc1cc(F)c(Cn2nc(-c3nc4c(c(Nc5cc(C)ncc5C)n3)CN(CC(F)(F)F)C4)c3ccccc32)c(F)c1 [Example 2-20-17, 2-{1-[2,6-difluoro-4-(2-methoxyethoxy)benzyl]-1H-indazol-3-yl}-N-(2,5-dimethylpyridin-4-yl)-6-(2,2,2-trifluoroethyl)-6,7-dihydro-5H-pyrrolo[3,4-d]pyrimidin-4-amine]
